Article PMC7570694, “Design, Synthesis, and Structure–Activity Relationships of Thiazole Analogs as Anticholinesterase Agents for Alzheimer’s Disease” (Molecules, 2020)

What was measured:
AChE [1] = target: T1, AChE (Electrophorus electricus, UniProt O42275); assay: AChE inhibition, modified Ellman spectrophotometric method; format: biochemical; conditions: for inhibition at 10 µM: read-out: AChE % Inhibition 10^-5 M; for inhibition at 1 µM: read-out: AChE % Inhibition 10^-6 M; for inhibition at 0.1 µM: read-out: AChE % Inhibition 10^-7 M; for inhibition at 0.01 µM: read-out: AChE % Inhibition 10^-8 M; for inhibition at 0.001 µM: read-out: AChE % Inhibition 10^-9 M; for inhibition at 1000 µM: read-out: AChE % Inhibition 10^−3 M; for inhibition at 100 µM: read-out: AChE % Inhibition 10^−4 M
T1 sequence (O42275 24-633): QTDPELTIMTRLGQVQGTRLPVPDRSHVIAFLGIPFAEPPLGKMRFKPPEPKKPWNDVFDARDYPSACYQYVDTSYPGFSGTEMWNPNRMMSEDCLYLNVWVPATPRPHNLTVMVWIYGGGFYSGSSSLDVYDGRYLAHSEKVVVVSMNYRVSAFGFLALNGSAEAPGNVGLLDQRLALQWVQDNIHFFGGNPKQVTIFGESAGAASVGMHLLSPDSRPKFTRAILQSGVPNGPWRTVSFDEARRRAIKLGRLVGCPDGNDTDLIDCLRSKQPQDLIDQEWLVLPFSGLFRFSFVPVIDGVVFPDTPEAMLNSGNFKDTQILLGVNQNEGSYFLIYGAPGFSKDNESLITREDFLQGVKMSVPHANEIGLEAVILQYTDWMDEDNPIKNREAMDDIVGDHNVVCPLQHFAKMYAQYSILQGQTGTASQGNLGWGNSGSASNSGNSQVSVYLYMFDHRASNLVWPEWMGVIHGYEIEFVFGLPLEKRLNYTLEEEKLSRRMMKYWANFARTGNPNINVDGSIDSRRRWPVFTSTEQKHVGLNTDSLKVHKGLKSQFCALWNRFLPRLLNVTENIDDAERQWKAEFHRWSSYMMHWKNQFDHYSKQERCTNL
Procedure: (§1) The reagents and materials used in the enzyme inhibition assay were supplied commercially from Sigma-Aldrich (St. Louis, MO, USA) and Fluka (Steinheim, Germany). The cholinesterase enzyme inhibition procedure was applied as previously reported in our research papers.
(§2) Moreover, the IC50 values were calculated with the help of GraphPad ‘PRISM’ software (version 5.0) by using a dose–response curve achieved by plotting the percentage inhibition versus the log concentration.
(§3) All of the attained 3-((2-(4-(4-(trifluoromethyl)phenyl)thiazol-2-yl)hydrazineylidene)methyl)-substituedphenyl derivatives were investigated with regard to their ability to inhibit the activity of cholinesterase enzymes using the in vitro modified Ellman’s spectrophotometric method previously described.
(§4) Therefore, the IC50 values of the selected compounds and reference agents were calculated.

BChE = BChE (Equus caballus, UniProt P81908); assay: biochemical; conditions: mean ± SD; for inhibition at 1000 µM: read-out: BChE % Inhibition 10^−3 M, compound at 10^−3 M; for inhibition at 100 µM: read-out: BChE % Inhibition 10^−4 M, compound at 10^−4 M
Chain of BChE (P81908 whole entry): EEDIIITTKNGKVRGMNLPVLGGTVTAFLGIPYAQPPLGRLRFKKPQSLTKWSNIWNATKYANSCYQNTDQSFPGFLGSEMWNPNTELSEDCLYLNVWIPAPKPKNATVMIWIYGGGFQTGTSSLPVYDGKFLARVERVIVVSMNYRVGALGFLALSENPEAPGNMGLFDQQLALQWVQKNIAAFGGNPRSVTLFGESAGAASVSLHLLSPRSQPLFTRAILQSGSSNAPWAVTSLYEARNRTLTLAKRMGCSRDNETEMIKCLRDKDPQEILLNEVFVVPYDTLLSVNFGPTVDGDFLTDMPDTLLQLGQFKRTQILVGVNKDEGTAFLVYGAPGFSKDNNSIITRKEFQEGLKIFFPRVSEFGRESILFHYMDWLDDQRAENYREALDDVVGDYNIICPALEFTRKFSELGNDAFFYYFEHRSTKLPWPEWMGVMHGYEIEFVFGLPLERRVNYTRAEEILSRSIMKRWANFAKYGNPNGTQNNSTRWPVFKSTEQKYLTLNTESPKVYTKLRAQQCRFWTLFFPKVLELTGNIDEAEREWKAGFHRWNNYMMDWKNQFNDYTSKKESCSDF
Procedure: as §1, §2, §3, §4

AChE [2] = target: T1, AChE; assay: Kinetic studies of AChE inhibition (Lineweaver–Burk plots, substrate ATC); format: biochemical; conditions: Lineweaver–Burk plot; IC50/2, IC50, 2xIC50; ATC 600–18.75 µM
Procedure: For this purpose, this compound was prepared at different concentrations (IC50, 2xIC50 and IC50/2). […] The Ki values of the compound were easily calculated from the second plot with a common intercept on the x-axis (corresponding to −Ki).
Enzyme kinetics studies were conducted to determine the mechanism of inhibition of AChE using a procedure similar to that of the inhibition assay for cholinesterase enzymes. […] Linear Lineweaver–Burk graphs were used to estimate the type of inhibition of this compound.
According to the Lineweaver–Burk plots, the type of inhibition consists of two general classes: reversible or irreversible.

Oc1cccc(C=NNc2nc(-c3ccc(C(F)(F)F)cc3)cs2)c1 [2a, 3-[(2-{4-[4-(Trifluoromethyl)phenyl]thiazol-2-yl}hydrazineylidene)methyl]phenol]
inhibition at 10 µM (AChE [1]): 81.2%
inhibition at 1 µM (AChE [1]): 74.2%
inhibition at 0.1 µM (AChE [1]): 61%
inhibition at 0.01 µM (AChE [1]): 41.3%
inhibition at 0.001 µM (AChE [1]): 20.4%
inhibition at 1000 µM (AChE [1]): 93.4 ± 1.65%
inhibition at 100 µM (AChE [1]): 90.5 ± 1.32%
inhibition at 1000 µM (BChE): > 50%
inhibition at 100 µM (BChE): 42.5 ± 0.978%

Oc1ccc(C=NNc2nc(-c3ccc(C(F)(F)F)cc3)cs2)cc1 [2b, 4-[(2-{4-[4-(Trifluoromethyl)phenyl]thiazol-2-yl}hydrazineylidene)methyl]phenol]
inhibition at 10 µM (AChE [1]): 74.6%
inhibition at 1 µM (AChE [1]): 63.8%
inhibition at 0.1 µM (AChE [1]): 58%
inhibition at 0.01 µM (AChE [1]): 43.9%
inhibition at 0.001 µM (AChE [1]): 21.2%
inhibition at 1000 µM (AChE [1]): 90.3 ± 1.45%
inhibition at 100 µM (AChE [1]): 82.2 ± 1.48%
inhibition at 1000 µM (BChE): > 50%
inhibition at 100 µM (BChE): 40.5 ± 0.71%

Oc1cccc(C=NNc2nc(-c3ccc(C(F)(F)F)cc3)cs2)c1O [2c, 3-[(2-{4-[4-(Trifluoromethyl)phenyl]thiazol-2-yl}hydrazineylidene)methyl]benzene-1,2-diol]
inhibition at 1000 µM (AChE [1]): 78.2 ± 1.02%
inhibition at 100 µM (AChE [1]): 45.1 ± 0.971%
inhibition at 1000 µM (BChE): 43.6 ± 0.955%
inhibition at 100 µM (BChE): 32.5 ± 0.721%

COc1ccccc1C=NNc1nc(-c2ccc(C(F)(F)F)cc2)cs1 [2d, 2-[2-(2-Methoxybenzylidene)hydrazineyl]-4-[4-(trifluoromethyl)phenyl]thiazole]
AChE inhibition profile in words (AChE [1]): moderate
inhibition at 10 µM (AChE [1]): 78.1%
inhibition at 1 µM (AChE [1]): 67.3%
inhibition at 0.1 µM (AChE [1]): 55.9%
inhibition at 0.01 µM (AChE [1]): 38.2%
inhibition at 0.001 µM (AChE [1]): 29.8%
inhibition at 1000 µM (AChE [1]): 89.5 ± 2.04%
inhibition at 100 µM (AChE [1]): 82.4 ± 1.7%
inhibition at 1000 µM (BChE): > 50%
inhibition at 100 µM (BChE): 43.8 ± 0.895%

COc1cccc(C=NNc2nc(-c3ccc(C(F)(F)F)cc3)cs2)c1 [2e, 2-[2-(3-Methoxybenzylidene)hydrazineyl]-4-[4-(trifluoromethyl)phenyl]thiazole]
inhibition at 10 µM (AChE [1]): 81.8%
inhibition at 1 µM (AChE [1]): 74.8%
inhibition at 0.1 µM (AChE [1]): 62.4%
inhibition at 0.01 µM (AChE [1]): 44.3%
inhibition at 0.001 µM (AChE [1]): 21.6%
inhibition at 1000 µM (AChE [1]): 90.6 ± 1.81%
inhibition at 100 µM (AChE [1]): 85.4 ± 1.73%
inhibition at 1000 µM (BChE): > 50%
inhibition at 100 µM (BChE): 41.6 ± 0.907%

COc1cccc(C=NNc2nc(-c3ccc(C(F)(F)F)cc3)cs2)c1OC [2f, 2-[2-(2,3-Dimethoxybenzylidene)hydrazineyl]-4-[4-(trifluoromethyl)phenyl]thiazole]
inhibition at 1000 µM (AChE [1]): 71.7 ± 1.4%
inhibition at 100 µM (AChE [1]): 40.5 ± 0.89%
inhibition at 1000 µM (BChE): 40.9 ± 0.895%
inhibition at 100 µM (BChE): 31.5 ± 0.82%

COc1ccc(C=NNc2nc(-c3ccc(C(F)(F)F)cc3)cs2)cc1OC [2g, 2-[2-(3,4-Dimethoxybenzylidene)hydrazineyl]-4-[4-(trifluoromethyl)phenyl]thiazole]
inhibition at 10 µM (AChE [1]): 81.5%
inhibition at 1 µM (AChE [1]): 76.9%
inhibition at 0.1 µM (AChE [1]): 69.2%
inhibition at 0.01 µM (AChE [1]): 43.1%
inhibition at 0.001 µM (AChE [1]): 24.9%
inhibition at 1000 µM (AChE [1]): 93.5 ± 1.63%
inhibition at 100 µM (AChE [1]): 88.3 ± 1.6%
inhibition at 1000 µM (BChE): > 50%
inhibition at 100 µM (BChE): 40.4 ± 0.845%

FC(F)(F)c1ccc(-c2csc(NN=Cc3ccc4c(c3)OCO4)n2)cc1 [2h, 2-[2-(Benzo[1,3]dioxol-5-ylmethylene)hydrazineyl]-4-[4-(trifluoromethyl)phenyl]thiazole]
inhibition at 1000 µM (AChE [1]): 77.6 ± 1.76%
inhibition at 100 µM (AChE [1]): 41.9 ± 0.976%
inhibition at 1000 µM (BChE): 45.8 ± 0.926%
inhibition at 100 µM (BChE): 34.3 ± 0.738%

COc1ccc(C=NNc2nc(-c3ccc(C(F)(F)F)cc3)cs2)cc1O [2i, 2-Methoxy-5-[(2-{4-[4-(trifluoromethyl)phenyl]thiazol-2-yl}hydrazineylidene)methyl]phenol]
inhibition at 10 µM (AChE [1]): 86.6%
inhibition at 1 µM (AChE [1]): 81%
inhibition at 0.1 µM (AChE [1]): 71.8%
inhibition at 0.01 µM (AChE [1]): 42.7%
inhibition at 0.001 µM (AChE [1]): 22.2%
inhibition at 1000 µM (AChE [1]): 95.2 ± 1.5%
inhibition at 100 µM (AChE [1]): 92.1 ± 1.8%
inhibition at 1000 µM (BChE): > 50%
inhibition at 100 µM (BChE): 41.5 ± 0.87%
type of inhibition of AChE (AChE [2]): reversible and mixed-type

COc1ccc(O)c(C=NNc2nc(-c3ccc(C(F)(F)F)cc3)cs2)c1 [2j, 4-Methoxy-2-[(2-{4-[4-(trifluoromethyl)phenyl]thiazol-2-yl}hydrazineylidene)methyl]phenol]
AChE inhibition profile in words (AChE [1]): moderate
inhibition at 10 µM (AChE [1]): 76.8%
inhibition at 1 µM (AChE [1]): 62.1%
inhibition at 0.1 µM (AChE [1]): 57.4%
inhibition at 0.01 µM (AChE [1]): 40.7%
inhibition at 0.001 µM (AChE [1]): 25.6%
inhibition at 1000 µM (AChE [1]): 91.3 ± 2.11%
inhibition at 100 µM (AChE [1]): 84.9 ± 1.37%
inhibition at 1000 µM (BChE): > 50%
inhibition at 100 µM (BChE): 39.6 ± 0.865%

COc1cc(C=NNc2nc(-c3ccc(C(F)(F)F)cc3)cs2)cc(OC)c1OC [2k, 4-[4-(Trifluoromethyl)phenyl]-2-[2-(3,4,5-trimethoxybenzylidene)hydrazineyl]thiazole]
inhibition at 1000 µM (AChE [1]): 65.3 ± 1.04%
inhibition at 100 µM (AChE [1]): 40.8 ± 0.94%
inhibition at 1000 µM (BChE): 40.2 ± 0.902%
inhibition at 100 µM (BChE): 25.6 ± 0.633%

COc1cc(C=NNc2nc(-c3ccc(C(F)(F)F)cc3)cs2)cc(OC)c1O [2l, 2,6-Dimethoxy-4-[(2-{4-[4-(trifluoromethyl)phenyl]thiazol-2-yl}hydrazineylidene)methyl]phenol]
inhibition at 1000 µM (AChE [1]): 62.8 ± 1.28%
inhibition at 100 µM (AChE [1]): 35.4 ± 0.895%
inhibition at 1000 µM (BChE): 38.7 ± 0.815%
inhibition at 100 µM (BChE): 23.2 ± 0.759%
